Results: PubChem BioAssay (NCI)
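Protocol summary: plate cells (96-well), add compound at 5 concentrations, incubate 48 h, interpolate endpoints linearly. GI50 = concentration required for 50% inhibition of growth. Definition used: TGI = concentration required for complete inhibition of growth.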

Key:
Test in all cases: NCI-60 cell line screen, 48 h; in the data active = GI50 below about 0.43 µM; inactive = the rest
[1] = system: NCI/ADR-RES ovarian
[2] = system: SNB-19 CNS
[3] = system: OVCAR-8 ovarian
[4] = system: SF-268 CNS
[5] = system: CAKI-1 renal
[6] = system: COLO 205 colon
[7] = system: OVCAR-5 ovarian
[8] = system: SN12C renal
[9] = system: SK-OV-3 ovarian
[10] = system: SK-MEL-5 melanoma

Cc1ccc2c(c1)nc(N)n[n+]2[O-]
> 100 µM: TGI [1] | TGI [2] | TGI [3] | TGI [4] | TGI [5] | TGI [6] | TGI [7] | TGI [8] | TGI [9] | TGI [10]

COc1cc2oc(-c3ccc(O)cc3)c(OC3OC(C)C(O)C(O)C3O)c(=O)c2c(O)c1OC (stereo not given)
> 100 µM: TGI [1] | TGI [2] | TGI [3] | TGI [4] | TGI [5] | TGI [6] | TGI [7] | TGI [8] | TGI [9] | TGI [10]

C/C(=N\NC(=S)NC(C)C)c1nc2ncccc2[nH]1
> 89.1 µM: TGI [5]
33.4 µM: TGI [9]
> 91.6 µM: TGI [2]
> 100 µM: TGI [1] | TGI [4] | TGI [6] | TGI [7] | TGI [8] | TGI [10]
52.7 µM: TGI [3]

CCC(=O)C(c1ccccc1)c1ccccn1 (stereo not given)
> 100 µM: TGI [1] | TGI [2] | TGI [3] | TGI [4] | TGI [5] | TGI [6] | TGI [7] | TGI [8] | TGI [9] | TGI [10]

Cc1[nH]c(/C=C2\C(=O)Nc3ccc(S(=O)(=O)Cc4c(Cl)cccc4Cl)cc32)c(C)c1C(=O)N1CCC[C@@H]1CN1CCCC1
> 24.4 µM: TGI [1]
6.74 µM: TGI [2]
59.1 µM: TGI [9]
inactive: GI50 [1] 2.96 µM | GI50 [2] 2.41 µM | GI50 [3] 1.88 µM | GI50 [4] 1.6 µM | GI50 [5] 5.05 µM | GI50 [6] 9.15 µM | GI50 [7] 1.95 µM | GI50 [8] 1.24 µM | GI50 [9] 22.4 µM | GI50 [10] 2.58 µM
22.6 µM: TGI [6]
3.72 µM: TGI [7]
2.57 µM: TGI [8]
4.03 µM: TGI [4]
15.8 µM: TGI [10]
4.37 µM: TGI [3]
13.6 µM: TGI [5]

COC1OC(=O)[C@H]2O[N+]([O-])=C(C)[C@@H]12 (stereo not given in full)
> 100 µM: TGI [1] | TGI [2] | TGI [3] | TGI [4] | TGI [5] | TGI [6] | TGI [7] | TGI [8] | TGI [9] | TGI [10]

OCC1CCCC(n2cnc3c(=S)nc[nH]c32)O1 (stereo not given)
> 100 µM: TGI [1] | TGI [2] | TGI [3] | TGI [4] | TGI [5] | TGI [6] | TGI [7] | TGI [8] | TGI [9] | TGI [10]

C=CC(=O)Nc1cccc(-c2nc(SC)nc(Nc3ccccc3OC)c2C#N)c1
inactive: GI50 [1] 2.46 µM | GI50 [2] 2.31 µM | GI50 [3] 2.07 µM | GI50 [4] 2.85 µM | GI50 [5] 1.71 µM | GI50 [6] 1.95 µM | GI50 [7] 2.26 µM | GI50 [8] 2.5 µM | GI50 [9] 6.09 µM | GI50 [10] 1.9 µM
4.32 µM: TGI [10]
6.99 µM: TGI [1]
5.42 µM: TGI [3]
4.3 µM: TGI [5]
6.51 µM: TGI [2]
5.33 µM: TGI [6]
5.92 µM: TGI [7]
14.3 µM: TGI [4]
8.15 µM: TGI [8]
26.9 µM: TGI [9]

O=C(O)c1ccc(NC(c2ccccc2)c2ccc3cccnc3c2O)cc1 (stereo not given)
> 100 µM: TGI [2] | TGI [4] | TGI [7] | TGI [9]
> 41.5 µM: TGI [3]
> 86.9 µM: TGI [6]
59.2 µM: TGI [5]
29.8 µM: TGI [10]
> 45.3 µM: TGI [1]
> 54.1 µM: TGI [8]

N#Cc1c(NC(=S)NC(=O)c2ccccc2)nc2c(c1-c1ccccc1)CCC2
> 100 µM: TGI [1] | TGI [2] | TGI [3] | TGI [4] | TGI [5] | TGI [6] | TGI [7] | TGI [8] | TGI [9] | TGI [10]

Nc1n[nH]c(=O)[nH]1
> 100 µM: TGI [1] | TGI [2] | TGI [3] | TGI [4] | TGI [5] | TGI [6] | TGI [7] | TGI [8] | TGI [9] | TGI [10]

O=C(Nc1ccc(I)cc1C(=O)NCCO)c1cccs1
> 100 µM: TGI [1] | TGI [2] | TGI [3] | TGI [4] | TGI [5] | TGI [6] | TGI [7] | TGI [8] | TGI [9] | TGI [10]
